The values below come from ChEMBL document CHEMBL2021774, “Rapid development of piperidine carboxamides as potent and selective anaplastic lymphoma kinase inhibitors” (J Med Chem, 2012).

As a reminder, the IC50 is the concentration at which inhibition is half-maximal. A high value points to weaker potency in that assay.

Each structure is given as a SMILES string.

The target of assay [1] is Insulin-like growth factor 1 receptor (Homo sapiens, UniProt P08069).
The target of assay [2] is T1, ALK tyrosine kinase receptor (Homo sapiens, UniProt Q9UM73).
T1 sequence (Q9UM73 whole entry): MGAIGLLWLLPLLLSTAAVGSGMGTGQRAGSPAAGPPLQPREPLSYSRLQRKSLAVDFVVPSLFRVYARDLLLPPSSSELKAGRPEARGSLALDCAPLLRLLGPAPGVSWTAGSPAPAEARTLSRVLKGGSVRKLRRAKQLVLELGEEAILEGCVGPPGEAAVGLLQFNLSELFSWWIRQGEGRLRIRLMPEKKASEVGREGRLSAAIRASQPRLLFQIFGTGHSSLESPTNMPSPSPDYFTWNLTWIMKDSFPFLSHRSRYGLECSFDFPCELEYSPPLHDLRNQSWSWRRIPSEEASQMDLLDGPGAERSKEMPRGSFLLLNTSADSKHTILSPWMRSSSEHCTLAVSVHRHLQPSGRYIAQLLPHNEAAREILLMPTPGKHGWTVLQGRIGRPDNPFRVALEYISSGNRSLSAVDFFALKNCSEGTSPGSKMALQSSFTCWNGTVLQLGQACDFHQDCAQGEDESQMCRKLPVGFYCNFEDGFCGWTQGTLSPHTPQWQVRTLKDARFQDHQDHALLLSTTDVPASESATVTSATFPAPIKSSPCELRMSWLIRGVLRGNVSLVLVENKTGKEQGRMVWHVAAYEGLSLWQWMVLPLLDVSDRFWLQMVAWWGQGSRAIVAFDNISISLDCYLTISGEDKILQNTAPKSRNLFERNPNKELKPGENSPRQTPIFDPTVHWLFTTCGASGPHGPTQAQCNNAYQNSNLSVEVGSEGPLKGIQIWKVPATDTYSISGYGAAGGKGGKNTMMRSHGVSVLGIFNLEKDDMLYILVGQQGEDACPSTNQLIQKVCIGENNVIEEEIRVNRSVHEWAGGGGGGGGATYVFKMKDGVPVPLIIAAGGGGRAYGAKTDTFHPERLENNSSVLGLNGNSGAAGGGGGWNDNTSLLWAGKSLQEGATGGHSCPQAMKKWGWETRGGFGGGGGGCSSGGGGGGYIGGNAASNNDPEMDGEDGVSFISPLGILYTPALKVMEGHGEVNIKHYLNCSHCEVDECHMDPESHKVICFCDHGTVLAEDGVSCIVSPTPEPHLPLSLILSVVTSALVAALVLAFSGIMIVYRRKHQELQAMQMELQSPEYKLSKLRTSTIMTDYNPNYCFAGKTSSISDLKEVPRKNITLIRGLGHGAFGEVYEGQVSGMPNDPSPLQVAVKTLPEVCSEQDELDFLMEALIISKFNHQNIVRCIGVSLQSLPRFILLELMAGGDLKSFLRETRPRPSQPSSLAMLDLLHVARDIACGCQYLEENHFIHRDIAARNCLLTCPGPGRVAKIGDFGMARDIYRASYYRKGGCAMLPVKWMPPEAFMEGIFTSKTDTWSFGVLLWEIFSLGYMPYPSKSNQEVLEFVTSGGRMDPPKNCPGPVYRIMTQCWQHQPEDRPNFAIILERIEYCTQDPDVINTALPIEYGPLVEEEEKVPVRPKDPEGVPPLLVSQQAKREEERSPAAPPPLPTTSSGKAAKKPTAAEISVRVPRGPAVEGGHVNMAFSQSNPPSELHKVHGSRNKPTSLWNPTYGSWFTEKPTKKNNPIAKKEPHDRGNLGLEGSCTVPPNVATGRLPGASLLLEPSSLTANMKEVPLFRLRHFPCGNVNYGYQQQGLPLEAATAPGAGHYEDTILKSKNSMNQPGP
Assay [3] deals with T1, ALK tyrosine kinase receptor. The source holds these as a separate data set.
Description: Inhibition of ALK phosphorylation in human Karpas-299 cells after 1 hr

Chain of Insulin-like growth factor 1 receptor (P08069 31-736 limits assumed): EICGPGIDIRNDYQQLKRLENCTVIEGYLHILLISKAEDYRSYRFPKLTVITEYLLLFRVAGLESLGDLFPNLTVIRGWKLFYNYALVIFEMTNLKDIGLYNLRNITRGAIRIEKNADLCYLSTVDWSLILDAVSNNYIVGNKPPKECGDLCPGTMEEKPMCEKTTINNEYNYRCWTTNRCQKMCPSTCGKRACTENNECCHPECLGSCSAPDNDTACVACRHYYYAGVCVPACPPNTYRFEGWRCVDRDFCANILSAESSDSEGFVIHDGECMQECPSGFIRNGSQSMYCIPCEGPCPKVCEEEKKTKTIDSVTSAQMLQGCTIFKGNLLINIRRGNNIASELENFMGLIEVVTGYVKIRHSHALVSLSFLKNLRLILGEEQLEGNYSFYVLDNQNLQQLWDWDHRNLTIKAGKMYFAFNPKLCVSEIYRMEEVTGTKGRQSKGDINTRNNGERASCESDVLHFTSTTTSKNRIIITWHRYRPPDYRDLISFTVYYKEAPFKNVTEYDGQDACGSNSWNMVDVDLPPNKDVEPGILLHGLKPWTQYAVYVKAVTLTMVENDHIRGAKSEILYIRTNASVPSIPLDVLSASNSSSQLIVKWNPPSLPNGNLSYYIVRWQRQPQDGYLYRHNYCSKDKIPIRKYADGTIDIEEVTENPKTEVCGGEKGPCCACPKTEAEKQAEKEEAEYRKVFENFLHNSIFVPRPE
Chain of Insulin-like growth factor 1 receptor (P08069 741-1367 limits assumed): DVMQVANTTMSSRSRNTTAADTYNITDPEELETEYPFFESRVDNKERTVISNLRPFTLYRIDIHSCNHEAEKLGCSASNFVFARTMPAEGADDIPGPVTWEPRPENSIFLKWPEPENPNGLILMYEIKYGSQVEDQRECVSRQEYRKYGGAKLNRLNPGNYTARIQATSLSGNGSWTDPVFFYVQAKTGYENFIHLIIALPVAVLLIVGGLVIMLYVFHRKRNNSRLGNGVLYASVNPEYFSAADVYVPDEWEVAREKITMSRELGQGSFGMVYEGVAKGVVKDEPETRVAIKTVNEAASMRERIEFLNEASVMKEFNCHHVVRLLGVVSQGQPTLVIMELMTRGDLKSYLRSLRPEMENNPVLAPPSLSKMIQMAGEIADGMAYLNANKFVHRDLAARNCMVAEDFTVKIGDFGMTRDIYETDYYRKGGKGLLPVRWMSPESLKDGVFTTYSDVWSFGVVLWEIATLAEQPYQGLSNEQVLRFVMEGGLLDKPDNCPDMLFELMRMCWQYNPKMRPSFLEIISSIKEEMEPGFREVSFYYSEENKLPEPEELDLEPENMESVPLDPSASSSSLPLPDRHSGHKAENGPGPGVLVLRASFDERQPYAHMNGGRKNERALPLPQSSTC

In assay [1], `COc1cc(Nc2nccc(N3CCC[C@H](C(=O)NCc4ccc(C)cc4)C3)n2)cc(OC)c1OC` displayed a 50% inhibitory concentration (IC50) of 4.61 µM. As for `CNc1nccc(N2CCC[C@H](C(=O)NCc3ccc(C)cc3)C2)n1`, the 50% inhibitory concentration (IC50) in assay [1] and in assay [2] was greater than 25 µM in each case. Turning to `Cc1ccc(CNC(=O)[C@H]2CCCN(c3ccnc(Nc4ccccc4)n3)C2)cc1`, the concentration for half-maximal inhibition (IC50) in assay [1] is greater than 25 µM. With `Cc1ccc(CNC(=O)[C@H]2CCCN(c3ccnc(NCc4ccccc4)n3)C2)cc1`, the IC50 in assay [1] and in assay [2] was greater than 25 µM in each case. Turning to `Cc1ccc(CNC(=O)[C@H]2CCCN(c3ccnc(Nc4cccc(Cl)c4)n3)C2)cc1`, the IC50 in assay [1] was greater than 25 µM. For the molecule `Cc1ccc(CNC(=O)[C@H]2CCCN(c3ccnc(Nc4ccc(Cl)cc4)n3)C2)cc1`, the IC50 was greater than 25 µM in assay [1] and 6.3 µM in assay [2]. In the case of `COc1ccc(Nc2nccc(N3CCC[C@H](C(=O)NCc4ccc(C)cc4)C3)n2)cc1`, the IC50 in assay [1] is greater than 25 µM.

On to `CCc1cccc(Nc2nccc(N3CCC[C@H](C(=O)NCc4ccc(C)cc4)C3)n2)c1`, for which the IC50 in assay [1] is greater than 25 µM.

With `CCc1ccc(Nc2nccc(N3CCC[C@H](C(=O)NCc4ccc(C)cc4)C3)n2)cc1`, the IC50 in assay [1] is greater than 25 µM. The same measure, in the same setting: for `COc1ccc(Nc2nccc(N3CCC[C@H](C(=O)NCc4ccc(C)cc4)C3)n2)cc1OC` the value was greater than 25 µM. Take `Cc1ccc(CNC(=O)[C@H]2CCCN(c3ccnc(Nc4ccc5c(c4)OCCO5)n3)C2)cc1`: in assay [1], the 50% inhibitory concentration (IC50) was greater than 25 µM.

As for `COc1cc(Nc2nccc(N3CCC[C@H](C(=O)NCCc4ccccc4)C3)n2)cc(OC)c1OC`, in assay [1], the half-maximal inhibitory concentration (IC50) is greater than 25 µM. Regarding `COc1cc(Nc2nccc(N3CCC[C@H](C(=O)NCCCc4ccccc4)C3)n2)cc(OC)c1OC`, in assay [2], half-maximal inhibition (IC50) required 6.71 µM. In the case of `COc1cc(Nc2nccc(N3CCC[C@H](C(=O)NCc4ccc([N+](=O)[O-])cc4)C3)n2)cc(OC)c1OC`, the IC50 was greater than 25 µM in assay [1] and 2.93 µM in assay [2]. In the case of `COC(=O)c1ccc(CNC(=O)[C@H]2CCCN(c3ccnc(Nc4cc(OC)c(OC)c(OC)c4)n3)C2)cc1`, the concentration for half-maximal inhibition (IC50) in assay [1] is greater than 25 µM. As for `COc1cc(Nc2nccc(N3CCC[C@H](C(=O)NCc4ccc(-c5ccccc5)cc4)C3)n2)cc(OC)c1OC`, the IC50 in assay [1] was greater than 25 µM. On to `COc1cc(Nc2nccc(N3CCC[C@H](C(=O)NCc4cccc(N5CCOCC5)c4)C3)n2)cc(OC)c1OC`, for which the half-maximal inhibitory concentration (IC50) in assay [2] worked out at 0.031 µM; in assay [3], 0.028 µM. Molecule `COc1cc(Nc2nccc(N3CCC[C@@H](C(=O)NCc4ccc(C)cc4)C3)n2)cc(OC)c1OC` yielded an IC50 in assay [1] greater than 25 µM.
